Here are results for 27 compounds from patent US9981916B2 (Genentech, Inc., priority 2013, dated 2018).

The experiment deals with T1, RORc ligand binding domain (Homo sapiens, UniProt P51449).
T1 construct: host or cells: E. coli
T1 sequence (P51449 269-508 limits assumed): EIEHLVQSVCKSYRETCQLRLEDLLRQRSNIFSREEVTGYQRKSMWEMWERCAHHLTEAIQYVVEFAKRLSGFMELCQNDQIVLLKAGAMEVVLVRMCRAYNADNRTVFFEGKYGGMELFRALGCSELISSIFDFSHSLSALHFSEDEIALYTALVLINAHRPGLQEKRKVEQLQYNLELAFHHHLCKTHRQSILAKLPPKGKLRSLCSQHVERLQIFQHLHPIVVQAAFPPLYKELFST
Put plainly: In vitro RORc ligand binding assay (25-[3H]hydroxycholesterol displacement, filter binding). Conditions: 6 nM 25-[3H]hydroxycholesterol, 0.6 ug/mL RORc receptor, 3 h at 25° C. The procedure, abridged: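 Filter-binding displacement of 6 nM 25-[3H]hydroxycholesterol from RORc receptor (0.6 ug/mL) in 50 mM HEPES pH 7.4, 150 mM NaCl, 5 mM MgCl2, 1 mM DTT, 0.01% BSA, 5% DMSO; 3 h at 25° C. NSB defined with 1 uM 25-hydroxycholesterol; scintillation counting gave Kiapp, IC50 or % inhibition (screening at 1 and 10 uM).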
The compound `CC1(C)[C@@H]2CC[C@@]1(C(=O)N1CC(n3cccn3)C1)c1nnc(-c3c(F)cccc3F)cc12` [Example 232, (3-(1H-pyrazol-1-yl)azetidin-1-yl)((5S,8S)-3-(2,6-difluorophenyl)-9,9-dimethyl-5,6,7,8-tetrahydro-5,8-methanocinnolin-8-yl)methanone] gave a half-maximal inhibitory concentration (IC50) of 232 nM. As to `CC1(C)[C@@H]2CC[C@@]1(C(=O)N1CC(CO)C1)c1nnc(-c3c(F)cccc3F)cc12` [Example 233, ((5S,8S)-3-(2,6-difluorophenyl)-9,9-dimethyl-5,6,7,8-tetrahydro-5,8-methanocinnolin-8-yl)(3-(hydroxymethyl)azetidin-1-yl)methanone], the IC50 was 819 nM. Then `C[C@H]1CCCN1C(=O)[C@]12CC[C@H](c3cc(-c4c(F)cccc4F)nnc31)C2(C)C` [Example 234, ((5S,8S)-3-(2,6-difluorophenyl)-9,9-dimethyl-5,6,7,8-tetrahydro-5,8-methanocinnolin-8-yl)((S)-2-methylpyrrolidin-1-yl)methanone], with 238 nM; and `CC(C)OC1CN(C(=O)[C@]23CC[C@H](c4cc(-c5c(F)cccc5F)nnc42)C3(C)C)C1` [Example 235, ((5S,8S)-3-(2,6-difluorophenyl)-9,9-dimethyl-5,6,7,8-tetrahydro-5,8-methanocinnolin-8-yl)(3-isopropoxyazetidin-1-yl)methanone], with 844 nM. The compound `CC1(C)[C@@H]2CC[C@@]1(C(=O)N1CC[C@@H](C#N)C1)c1nnc(-c3c(F)cccc3F)cc12` [Example 236, (R)-1-((5S,8S)-3-(2,6-difluorophenyl)-9,9-dimethyl-5,6,7,8-tetrahydro-5,8-methanocinnoline-8-carbonyl)pyrrolidine-3-carbonitrile] registered an IC50 of 405 nM. Then `CC1(C)CCN(C(=O)[C@]23CC[C@H](c4cc(-c5c(F)cccc5F)nnc42)C3(C)C)C1` [Example 237, ((5S,8S)-3-(2,6-difluorophenyl)-9,9-dimethyl-5,6,7,8-tetrahydro-5,8-methanocinnolin-8-yl)(3,3-dimethylpyrrolidin-1-yl)methanone], with 498 nM; and `CC1(C)[C@@H]2CC[C@@]1(C(=O)N1CC[C@@H](O)C1)c1nnc(-c3c(F)cccc3F)cc12` [Example 238, ((5S,8S)-3-(2,6-difluorophenyl)-9,9-dimethyl-5,6,7,8-tetrahydro-5,8-methanocinnolin-8-yl)((R)-3-hydroxypyrrolidin-1-yl)methanone], with 236 nM; and `CN1C[C@@H]2C[C@H]1CN2C(=O)[C@]12CC[C@H](c3cc(-c4c(F)cccc4F)nnc31)C2(C)C` [Example 239, ((5S,8S)-3-(2,6-difluorophenyl)-9,9-dimethyl-5,6,7,8-tetrahydro-5,8-methanocinnolin-8-yl)((1S,4S)-5-methyl-2,5-diazabicyclo[2.2.1]heptan-2-yl)methanone], with 892 nM.

With `CC1(C)[C@@H]2CC[C@@]1(C(=O)N1CC3(CCC3)C1)c1nnc(-c3c(F)cccc3F)cc12` [Example 240, ((5S,8S)-3-(2,6-difluorophenyl)-9,9-dimethyl-5,6,7,8-tetrahydro-5,8-methanocinnolin-8-yl)(2-azaspiro[3.3]heptan-2-yl)methanone], the IC50 was 217 nM. This IC50 lies about 4.1-fold lower than the previous one. To `CC1(C)[C@@H]2CC[C@@]1(C(=O)N1C[C@@H]3C[C@H]1CN3S(C)(=O)=O)c1nnc(-c3c(F)cccc3F)cc12` [Example 241, ((5S,8S)-3-(2,6-difluorophenyl)-9,9-dimethyl-5,6,7,8-tetrahydro-5,8-methanocinnolin-8-yl)((1S,4S)-5-(methylsulfonyl)-2,5-diazabicyclo[2.2.1]heptan-2-yl)methanone] belongs 327 nM; to `CN(C)[C@@H]1CCN(C(=O)[C@]23CC[C@H](c4cc(-c5c(F)cccc5F)nnc42)C3(C)C)C1` [Example 242, ((5S,8S)-3-(2,6-difluorophenyl)-9,9-dimethyl-5,6,7,8-tetrahydro-5,8-methanocinnolin-8-yl) ((R)-3-(dimethylamino)pyrrolidin-1-yl)methanone], 707 nM; to `CNC(=O)C1CCCN1C(=O)[C@]12CC[C@H](c3cc(-c4c(F)cccc4F)nnc31)C2(C)C` (stereo partly drawn) [Example 243, 1-((5S,8S)-3-(2,6-difluorophenyl)-9,9-dimethyl-5,6,7,8-tetrahydro-5,8-methanocinnoline-8-carbonyl)-N-methylpyrrolidine-2-carboxamide], 2950 nM. `CNC(=O)C1CCN(C(=O)[C@]23CC[C@H](c4cc(-c5c(F)cccc5F)nnc42)C3(C)C)C1` (stereo partly drawn) [Example 244, 1-((5S,8S)-3-(2,6-difluorophenyl)-9,9-dimethyl-5,6,7,8-tetrahydro-5,8-methanocinnoline-8-carbonyl)-N-methylpyrrolidine-3-carboxamide] had an IC50 of 904 nM. To `CC1(C)[C@@H]2CC[C@@]1(C(=O)N1CCC(C#N)C1)c1nnc(-c3c(F)cccc3F)cc12` (stereo partly drawn) [Example 245, 1-((5S,8S)-3-(2,6-difluorophenyl)-9,9-dimethyl-5,6,7,8-tetrahydro-5,8-methanocinnoline-8-carbonyl)pyrrolidine-3-carbonitrile] belongs 126 nM; to `COC[C@@H]1CCCN1C(=O)[C@]12CC[C@H](c3cc(-c4c(F)cccc4F)nnc31)C2(C)C` [Example 246, ((5S,8S)-3-(2,6-difluorophenyl)-9,9-dimethyl-5,6,7,8-tetrahydro-5,8-methanocinnolin-8-yl)((S)-2-(methoxymethyl)pyrrolidin-1-yl)methanone], 2840 nM.

The compound `CC1(C)[C@@H]2CC[C@@]1(C(=O)N1C3CCC1CC3)c1nnc(-c3c(F)cccc3F)cc12` [Example 247, 7-azabicyclo[2.2.1]heptan-7-yl((5S,8S)-3-(2,6-difluorophenyl)-9,9-dimethyl-5,6,7,8-tetrahydro-5,8-methanocinnolin-8-yl)methanone] registered an IC50 of 1110 nM. As to `CC1(C)[C@@H]2CC[C@@]1(C(=O)N1CCC(C(N)=O)C1)c1nnc(-c3c(F)cccc3F)cc12` (stereo partly drawn) [Example 249, 1-((5S,8S)-3-(2,6-difluorophenyl)-9,9-dimethyl-5,6,7,8-tetrahydro-5,8-methanocinnoline-8-carbonyl)pyrrolidine-3-carboxamide], the half-maximal inhibitory concentration (IC50) stood at 3120 nM.

For the compound `CC1(C)[C@@H]2CC[C@@]1(C(=O)N1CCC[C@H]1C(N)=O)c1nnc(-c3c(F)cccc3F)cc12` [Example 250, (S)-1-((5S,8S)-3-(2,6-difluorophenyl)-9,9-dimethyl-5,6,7,8-tetrahydro-5,8-methanocinnoline-8-carbonyl)pyrrolidine-2-carboxamide], the IC50 was found to be 3090 nM. To `Cn1ncnc1[C@@]12CC[C@@H](c3cc(-c4c(F)cccc4F)nnc31)C2(C)C` [Example 251, (5R,8R)-3-(2,6-difluorophenyl)-9,9-dimethyl-8-(1-methyl-1H-1,2,4-triazol-5-yl)-5,6,7,8-tetrahydro-5,8-methanocinnoline] belongs 610 nM; to `CC1(C)[C@@H]2CC[C@@]1(N1CCNC1=O)c1nnc(-c3c(F)cccc3F)cc12` [Example 252, 1-((5S,8S)-3-(2,6-difluorophenyl)-9,9-dimethyl-5,6,7,8-tetrahydro-5,8-methanocinnolin-8-yl)imidazolidin-2-one], 1580 nM; to `CC1(C)[C@@H]2CC[C@@]1(N1CCCC1=O)c1nnc(-c3c(F)cccc3F)cc12` [Example 253, 1-((5S,8S)-3-(2,6-difluorophenyl)-9,9-dimethyl-5,6,7,8-tetrahydro-5,8-methanocinnolin-8-yl)pyrrolidin-2-one], 961 nM. To `CC1(C)[C@@H]2CC[C@@]1(N1CCOC1=O)c1nnc(-c3c(F)cccc3F)cc12` [Example 254, 3-((5S,8S)-3-(2,6-difluorophenyl)-9,9-dimethyl-5,6,7,8-tetrahydro-5,8-methanocinnolin-8-yl)oxazolidin-2-one] belongs 866 nM. Turning to `CC1(C)[C@H]2CC[C@]1(c1nnc(N)o1)c1nnc(-c3c(F)cccc3F)cc12` [Example 255, 5-((5R,8R)-3-(2,6-difluorophenyl)-9,9-dimethyl-5,6,7,8-tetrahydro-5,8-methanocinnolin-8-yl)-1,3,4-oxadiazol-2-amine], the IC50 came to 822 nM. This IC50 and that of the compound before are within 1.5-fold of each other. The compound `CC(C)(C)OC(=O)N[C@]12CC[C@H](c3cc(-c4c(F)cccc4F)nnc31)C2(C)C` [Example 256, tert-butyl ((5S,8S)-3-(2,6-difluorophenyl)-9,9-dimethyl-5,6,7,8-tetrahydro-5,8-methanocinnolin-8-yl)carbamate] yielded an IC50 of 2330 nM. To `CC1(C)[C@H]2CC[C@]1(N1CCOC1=O)c1nnc(-c3c(F)cccc3F)cc12` [Example 257, 3-((5R,8R)-3-(2,6-difluorophenyl)-9,9-dimethyl-5,6,7,8-tetrahydro-5,8-methanocinnolin-8-yl)oxazolidin-2-one] belongs 438 nM. Then `CN(CCC#N)C(=O)[C@]12CC[C@H](c3cc(-c4c(F)cccc4F)nnc31)C2(C)C` [Example 258, (5S,8S)-N-(2-cyanoethyl)-3-(2,6-difluorophenyl)-N,9,9-trimethyl-5,6,7,8-tetrahydro-5,8-methanocinnoline-8-carboxamide], with 1130 nM; and `CC1(C)[C@@H]2CC[C@@]1(C(=O)N1CC(C#N)C1)c1nnc(-c3c(F)cccc3F)cc12` [Example 259, 1-((5S,8S)-3-(2,6-difluorophenyl)-9,9-dimethyl-5,6,7,8-tetrahydro-5,8-methanocinnoline-8-carbonyl)azetidine-3-carbnitrite], with 345 nM.
